Experimental data from patent US12202827B2, “Aldosterone synthase inhibitor” (DAMIAN PHARMA AG, priority 2016, dated 2025).
Read-outs that look alike come from different tables or passages of the source.

Description: Long-term stability data relevant and important for regulatory considerations have been measured.

## N#Cc1ccc([C@H]2CCCc3cncn32)cc1.O=P(O)(O)O
25° C./60% RH, 1 month
  Appearance: White
  Chiral Purity: >99.5
  Polymorph by XRPD: Conform
  Purity by HPLC: 99.77
  Water content: 0.2
25° C./60% RH, 3 months
  Appearance: White
  Chiral Purity: >99.5
  Polymorph by XRPD: Conform
  Purity by HPLC: 99.81
  Water content: 0.2
25° C./60% RH, 6 months
  Appearance: White
  Chiral Purity: >99.5
  Polymorph by XRPD: Conform
  Purity by HPLC: 99.82
  Water content: 0.2
25° C./60% RH, 9 months
  Appearance: White
  Chiral Purity: >99.5
  Polymorph by XRPD: Conform
  Purity by HPLC: 99.84
  Water content: 0.2
25° C./60% RH, 12 months
  Appearance: White
  Chiral Purity: >99.5
  Polymorph by XRPD: Conform
  Purity by HPLC: 99.81
  Water content: 0.3
25° C./60% RH, Initial
  Appearance: White
  Chiral Purity: >99.5
  Polymorph by XRPD: Conform
  Purity by HPLC: 99.87
  Water content: 0.3
30° C./65%RH, 1 month
  Appearance: White
  Chiral Purity: >99.5
  Polymorph by XRPD: Conform
  Purity by HPLC: 99.76
  Water content: 0.2
30° C./65%RH, 3 months
  Appearance: White
  Chiral Purity: >99.5
  Polymorph by XRPD: Conform
  Purity by HPLC: 99.81
  Water content: 0.3
30° C./65%RH, 6 months
  Appearance: White
  Chiral Purity: >99.5
  Polymorph by XRPD: Conform
  Purity by HPLC: 99.84
  Water content: 0.2
30° C./65%RH, 9 months
  Appearance: White
  Chiral Purity: >99.5
  Polymorph by XRPD: Conform
  Purity by HPLC: 99.86
  Water content: 0.2
30° C./65%RH, 12 months
  Appearance: White
  Chiral Purity: >99.5
  Polymorph by XRPD: Conform
  Purity by HPLC: 99.85
  Water content: 0.3
30° C./65%RH, Initial
  Appearance: White
  Chiral Purity: >99.5
  Polymorph by XRPD: Conform
  Purity by HPLC: 99.87
  Water content: 0.3
40° C./75% RH, 1 month
  Appearance: White
  Chiral Purity: >99.5
  Polymorph by XRPD: Conform
  Purity by HPLC: 99.80
  Water content: 0.3
40° C./75% RH, 3 months
  Appearance: White
  Chiral Purity: >99.5
  Polymorph by XRPD: Conform
  Purity by HPLC: 99.79
  Water content: 0.5
40° C./75% RH, 6 months
  Appearance: White
  Chiral Purity: >99.5
  Polymorph by XRPD: Conform
  Purity by HPLC: 99.88
  Water content: 0.3
40° C./75% RH, Initial
  Appearance: White
  Chiral Purity: >99.5
  Polymorph by XRPD: Conform
  Purity by HPLC: 99.87
  Water content: 0.3
All assessed stability conditions and time periods
  Long-term stability (purity, water content, chiral purity), in words: very stable
